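Cells were grown in 96-well plates and exposed to each compound for 48 hours at five concentrations; endpoints were interpolated linearly between bracketing concentrations, or set to the highest concentration if not reached. Here, GI50 denotes the concentration required for 50% inhibition of growth. TGI: total growth inhibition.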
Key:
Assay in all cases: NCI tumour cell line growth inhibition, 48 h
CCRF-CEM leukemia = test system: CCRF-CEM leukemia
HCT-15 colon = test system: HCT-15 colon
K-562 leukemia = test system: K-562 leukemia
M14 melanoma = test system: M14 melanoma
MALME-3M melanoma = test system: MALME-3M melanoma
MOLT-4 leukemia = test system: MOLT-4 leukemia
PC-3 prostate = test system: PC-3 prostate
SW-620 colon = test system: SW-620 colon
UACC-257 melanoma = test system: UACC-257 melanoma
UO-31 renal = test system: UO-31 renal

| SMILES | TGI (CCRF-CEM leukemia) [µM] | TGI (HCT-15 colon) [µM] | TGI (K-562 leukemia) [µM] | TGI (M14 melanoma) [µM] | TGI (MALME-3M melanoma) [µM] | TGI (MOLT-4 leukemia) [µM] | TGI (PC-3 prostate) [µM] | TGI (SW-620 colon) [µM] | TGI (UACC-257 melanoma) [µM] | TGI (UO-31 renal) [µM] | GI50 (CCRF-CEM leukemia) [µM] | GI50 (HCT-15 colon) [µM] | GI50 (K-562 leukemia) [µM] | GI50 (M14 melanoma) [µM] | GI50 (MALME-3M melanoma) [µM] | GI50 (MOLT-4 leukemia) [µM] | GI50 (PC-3 prostate) [µM] | GI50 (SW-620 colon) [µM] | GI50 (UACC-257 melanoma) [µM] | GI50 (UO-31 renal) [µM] |
| --- | --- | --- | --- | --- | --- | --- | --- | --- | --- | --- | --- | --- | --- | --- | --- | --- | --- | --- | --- | --- |
| N/N=C1\CC(=O)NC(=O)N1 | > 100 | > 100 | > 100 | > 100 | > 100 | > 100 | > 100 | > 100 | > 100 | > 100 |  |  |  |  |  |  |  |  |  |  |
| O=C(Oc1cccnc1)c1ccsc1Nc1ccnc(C(F)(F)F)c1 | > 100 | > 100 | > 100 | > 100 | > 100 | 35 | 73.2 | > 100 | 23.4 | > 100 | 4.19 | 3.49 | 3.74 | 9.39 | 45.6 | 4.39 | 9.24 | 4.09 | 10.5 | 20.8 |
| CC(=O)c1c(C(F)(F)F)n([O-])c2ccc(C)cc2[n+]1=O | 4.83 | 39.4 | 21.4 | 8.88 | 15.6 | 5.2 | 14.1 | > 100 | > 46.8 |  | 0.555 | 2.45 | 1.1 | 2.41 | 2.54 | 0.0504 | 1.34 | 3.54 | 4.42 | 4.39 |
| N#CN1CC[C@H](C(=O)Nc2ncc(-c3ccncc3)s2)C1 | > 100 | > 100 | > 100 | 2.1 | 0.0694 | 3.8 | 12.7 | 19.5 | 6.91 | 0.758 | < 0.0156 | < 0.021 | 0.0471 | 0.0379 | < 0.0129 | < 0.01 | 0.0582 | 0.023 | 0.605 | < 0.0188 |
| COc1ccc(/C=N/NC(=O)Cn2c(-c3ccc(S(C)(=O)=O)cc3)nc3cc(Cl)ccc32)cc1 | > 50 | > 50 | > 50 | > 50 | 46.4 | > 50 | > 50 | > 50 | > 50 | > 50 | 0.318 | 0.653 | 0.343 | 0.505 | 2.3 | 2.11 | 0.674 | 1.21 | > 50 | 3.45 |
| COc1ccc2cc(-c3c(-c4ccncc4)nc(-c4ccc(S(C)=O)cc4)n3C)ccc2c1 (stereo not drawn) | > 25 | > 25 | > 25 | > 25 | > 25 | > 25 | > 25 | > 25 | > 25 | > 25 | > 21.6 | 9.57 | 15.6 | > 25 | 24.5 | 17.2 | > 21.3 | > 25 | > 25 | 6.42 |
| O=C(Nc1cccc(Nc2ncc(Br)c(NCCc3cnc[nH]3)n2)c1)N1CCCC1 | 29 | > 67 | > 64.9 | 21.8 | 20 | 24.8 | 45.6 | 11.4 | 37.5 | 45.8 | 0.58 | 21.7 | 2.84 | 6.23 | 6.19 | 2.41 | 3.2 | 1.27 | 12 | 13.4 |
| C[C@@H]1O[C@@H](O[C@H]2CC[C@@]3(C)[C@H](CCC4[C@@H]3C(O)C[C@]3(C)[C@@H](c5ccc(=O)oc5)CC[C@]43O)C2)[C@H](O)[C@H](O)[C@H]1O (stereo partly drawn) | 0.0076 | 0.0209 | 0.879 | 0.0148 | 0.0166 |  | 0.0296 | 0.0123 | 0.0121 | 0.015 | < 0.00325 | 0.00786 | 0.00984 | 0.00609 | 0.00659 | < 0.00325 | 0.00462 | 0.00489 | 0.00589 | 0.00577 |
| O=C(O)COc1c(Cl)cc(Cl)c2cccnc12 | > 100 | > 100 | > 100 | > 100 | > 100 | > 100 | > 100 | > 100 | > 100 | > 100 |  |  |  |  |  |  |  |  |  |  |
| c1ccc2c3c([nH]c2c1)C1CCCN1CC3 (stereo not drawn) | > 10 | > 10 | > 10 | > 10 | > 10 | > 10 | > 10 | > 10 | > 10 | > 10 |  |  |  |  |  |  |  |  |  |  |
| Cc1cccc(NC(=O)c2sc3nc4c(cc3c2N)CN(Cc2ccccc2)CC4)c1C | > 50 | > 50 | > 50 | 33.2 | > 50 | > 50 | > 50 | > 50 | > 50 | > 50 | 0.195 | 0.176 | 0.104 | 0.149 | 0.239 | 0.286 | 0.21 | 0.207 | > 50 | 0.917 |
| COc1ccc(OC)c(Cn2cc3c(c2)-c2oncc2CC3)c1 | > 26 | > 100 | > 57.8 | 9.48 | 40.7 | > 41.2 | > 100 | > 100 | > 82.4 | 38.8 | 2.13 | 2.92 | 0.762 | 2.15 | 3.03 | 3.08 | 5.89 | 2.87 | 5.11 | 4.13 |
| CCOc1nc(N)nc(C)c1N=Nc1ccc(Cl)cc1 | > 100 | > 100 | > 100 | > 100 | > 100 | > 100 | > 100 | > 100 | > 100 | > 100 |  |  |  |  |  |  |  |  |  |  |
| Cc1cc(N(CCC#N)CCC#N)ccc1/C=C1N=C(/C=C\c2ccccc2)N(c2ccc(Cl)cc2)C\1=O | > 100 | > 100 | > 100 | > 48.2 | > 72 | > 100 | > 100 | > 100 | > 100 | > 53.9 |  |  |  |  |  |  |  |  |  |  |
| COC(=O)c1nc(-c2ccccc2)oc1S(=O)(=O)n1nc(C)cc1N | 10.5 | 17.8 | 6.98 | 20 | 4.06 | 11.4 | 33.5 | 11.2 | 39.7 | 21.1 | 2.11 | 4.51 | 2.13 | 5.66 | 1.78 | 3.08 | 18.3 | 3.22 | 18.6 | 8.59 |
| CCCCCn1sc(=O)n(Cc2ccc(CNC(=O)OCc3ccc4cccc(O)c4n3)cc2)c1=O | > 100 | 4.81 | 15.7 | 3.12 | 3 | 45.2 | 2.76 | 2.83 | 3.08 | 2.25 | 0.489 | 1.44 | 0.846 | 1.33 | 1.56 | 3.02 | 1.22 | 1.25 | 1.57 | 1.07 |
| CCC1(O)C(=O)OCc2c1cc1n(c2=O)Cc2cc3cc(N)ccc3nc2-1 (stereo not drawn) | < 0.01 | 3.55 | 31.3 | 0.153 | 1.33 | < 0.01 | > 100 | > 100 | 1.89 | 0.0864 |  |  |  |  |  |  |  |  |  |  |
| CCN1C(=O)N(CC)C2C1NN=c1s/c(=C\c3ccccc3Br)c(=O)n12 (stereo not drawn) | > 100 | 12.6 | > 100 | 13.8 | 33.7 | 29.5 | 44.5 | > 54.2 | 33.3 | 34.4 | 0.0354 | 0.0303 | 0.0329 | 0.0318 | 1.12 | 0.0399 | 0.0383 | 0.037 | 9.29 | 0.205 |

Source: PubChem BioAssay (NCI)
